In patent US20170246137A1, “SULFESTROL FOR TREATING CANCER” (CHAMAELEO PHARMA BVBA, priority 2012, published 2017):
“And” between values parts separate entries of the source, which are not always exact repeats. Identical values can stand only once.

Tests used:
[1] = system: platelet-rich plasma (PRP); assay: Platelet-aggregation-inducing effects in platelet-rich plasma, absorbance 630 nm; format: cell-based; conditions: 7 minutes, human PRP
Procedure: Blood necessary to generate PRP was obtained from 4 healthy human volunteers. 100 ml of fresh venous blood from each donor was isolated directly into tubes containing 1/10th volume of the anti-coagulant Tri-Sodium Citrate (3.2% w/v). The blood and anti-coagulant were immediately mixed and the final concentration of Tri-Sodium Citrate was 0.0106 M.
PRP was prepared by centrifugation of anti-coagulated blood at 180 g for 10 minutes at room temperature. The cloudy yellow supernatant containing the platelets was removed and placed into a clean polypropylene tube. Platelet-poor plasma (PPP) was prepared by centrifuging the remaining sample at 1,200 g for 20 minutes at room temperature. The PRP was adjusted to a suitable platelet count and absorbance at 630 nm by addition of PPP.
All three compounds were dissolved in 100% DMSO to give a stock concentration of 60 mM. […] […] 100 nM gamma thrombin (Cambridge bioscience) was used as control for platelet aggregation. 90 μl aliquots of PRP were added to 96 wells plates. A baseline absorbance reading was taken at 630 nm. 5 μl of the compounds and gamma thrombin control was added to the appropriate PRP.
The plates were incubated at room temperature for 7 minutes on a plate shaker with continuous shaking. A second A630 nm reading was made after the 7 minutes incubation to measure any platelet aggregation induced by the compounds.

[2] = Concentration of Mono-Sulfestrol in pooled plasma samples, LC-UV quantification; format: in vivo, male Sprague Dawley rats; conditions: 10 mg/kg of the labelled compound, rat, pooled 0.5-8 hrs
Procedure: The concentration of Mono-Sulfestrol in the pooled samples described in Example 6 was quantified by LC-UV quantification.
A calibration standard solution was prepared as 10,000 ng/mL by adding an appropriate amount of Mono-Sulfestrol into 20% acetonitrile/0.1% formic acid in water. The peak area of the standard solution and the sample were measured with the wavelength set at 200 to 360 nm. The concentration levels of Mono-Sulfestrol were estimated using peak area (Area) of the standard and unknown samples and concentration of the standard (Concstd) by the following equation:
Areaunknown/Areastd=Concunknown/Concstd
Concunknown=Concstd·(Areaunknown/Areastd)

[3] = Estrogenic activity: body weight and plasma cholesterol levels; format: in vivo, male Sprague-Dawley rats; conditions: for Mean bodyweight: in g (unit assumed)
Procedure: Estrogenic activity was determined by measuring body weight and plasma cholesterol levels.
Each animal was dosed three times a day with vehicle or test compound (1st dose 7:30-8:00, 2nd dose 12:30-13:00, 3rd dose 17:00-17:30) for 14 consecutive days.
After 14 days treatment, blood was collected from the animals via cardiac puncture 4 hrs past final dosing to analyze plasma cholesterol levels. The blood was immediately transferred to a tube containing 0.5M EDTA anticoagulant. It was mixed gently and centrifuged at 1000×g at 4° C. for 15 min. Plasma was aspirated from the centrifuged blood samples, quick frozen on dry ice and stored at −80° C. for later use.
Plasma cholesterol levels were determined using a commercial ELISA kit obtained from NovaTeinBio (BG-RAT11262). Standard protocol accompanied by the kit was used without any adjustments.

[4] = In vitro metabolism in human liver microsomes (STS and CYP); format: in vitro ADME; parameters: Clint: unit not given here
Procedure: In vitro metabolism pathways of DES, Mono-Sulfestrol and Di-Sulfestrol in human liver microsomes were investigated.
Special emphasis was put on desulfatation by steroid sulfatase (STS) and oxidation by cytochrome P (CYP) metabolism. Liver microsomes (Celsis in vitro Technologies) were used at a concentration of 0.5 mg/ml in a volume of 600 μl phosphate buffer pH 7.4. Estrone-3-sulfate was used as positive control.
5 μM of each compound (test and control compound) was added to the liver microsomes and the mixture was incubated at 37° C. for 5, 10, 20, 30, 50, 90 and 120 minutes. After incubation, aliquots of 45 μl were taken which were subsequently quenched with 150 μl ice cold methanol. Aliquots were incubated ≧1 h at −20° C. for protein precipitation. After precipitation, samples were centrifuged and remaining supernatant was used for analysis with LC-MS/MS. Half life of the compounds, speed of metabolism or intrinsic clearance (Clint), and contribution to metabolism of CYP and STS metabolism were calculated based on the data obtained at each time point.

MDA-MB-231 Dlux = assay: Orthotopic spontaneous metastasis breast model, whole body bioluminescence; format: in vivo, female MF-1 nude mice; conditions: for total flux, whole body bioluminescence: mono-Sulfestrol 60 mg/kg, di-Sulfestrol 80 mg/kg orally once a day
Procedure: Female MF-1 nude mice (HsdOla:MF1-Foxn1nu, Harlan, UK) were divided into 3 groups of each 8 mice (n=8):
The mice were 5-6 weeks old at the start of the study and were maintained in sterile isolators within a barriered unit illuminated by fluorescent lights set to give a 12 hour light-dark cycle (on 07.00, off 19.00). The room was air-conditioned to maintain an air temperature range of 23±2° C. Sterile irradiated 2019 rodent diet (Harlan Teklad UK, product code Q219DJ1R2) and autoclaved water were offered ad libitum.
The MDA-MB-231 Dlux cells were maintained in vitro in RPMI containing 2 mM L-Glut and (Life Technologies, UK) and 10% (v/v) heat-inactivated foetal bovine serum (Sigma, Poole, UK) at 37° C. in 5% CO2 and humidified conditions. Cells were treated with Zeocin once a week at 0.4 mg/mL.
On the day of initiation cells were harvested from semi-confluent monolayers with 0.05% Trypsin-EDTA, washed twice in the culture medium and counted. Cells with viability of >90% were re-suspended, for in vivo administration, in 1:1 PBS:Matrigel at 2×10^6 cells/0.1 mL. Prior to injection, the cell suspension was homogenized and 0.1 mL of cell suspension was drawn into a 1 mL syringe. The cell suspension was then injected orthotopically into the lower left-side 2nd mammary fat pad of each mouse under anaesthesia (Medetomidine/Ketamine).
On day 7 after initiation and every six days thereafter, the mice were injected (s.c.) with 150 mg/kg D-Luciferin. 10 minutes following administration of D-Luciferin mice were anaesthetised and 15 minutes after administration they were placed into an imaging chamber (Spectrum CT) and imaged for luminescence (ventral view; whole body and shielding of the primary tumor). Images were captured and processed by Living Image 4.3.1 software (Caliper LS, US.).
On day 7 after initiation mice were assigned to groups such that there was a uniform mean bioluminescent signal between the groups.

[5] = cited from earlier work
[6] = cited from earlier work; remark: listed apart in the source
[7] = Metabolites in plasma after oral and intravenous administration, LC-MS/MS; conditions: 10 mg/kg oral and intravenous
Procedure: Metabolites were identified after oral and intravenous administration of the compounds.
Each group consisted of three rats, giving a total of 12 animals. Compounds were dosed at 10 mg/kg for both oral and intravenous administration. A 0.9% saline solution was used as vehicle for oral and intravenous administration.
Prior to intravenous administration, the solution was filtered through a 0.22 μM filter. Oral dosing was performed using a oral gavage. Tail vein injection was used for intravenous administration.
At 0.5, 1, 2, 4, 6 and 8 hrs post administration, 0.25 ml blood was drawn from the animals and immediately transferred to prechilled microcentrifuge tubes containing 4 μl of K2-EDTA to prevent coagulation. Plasma was obtained by centrifugation of the plasma and stored at −70° C. until analysis. Plasma drawn from each individual rat was pooled according to the following schedule:
The pooled samples were analyzed using LC-MS/MS and the relative percentage of each metabolite in the pooled sample was measured on the basis of the mass spectrometric peak areas of the parent and its metabolites in the plasma.

[8] = orally administered, daily doses of 2 mg; cited from earlier work
[9] = nothing added (STS active, CYP inactive), 5 μM

Substance: 4,4′-(hex-3-ene-3,4-diyl)bis(4,1-phenylene) disulfate [Di-Sulfestrol]
- Absorbance (630 nm) ([1]; 2.3 μM, high absorbance = low aggregation): 0.260 ± 0.030
- Absorbance (630 nm) ([1]; 4.7 μM): 0.253 ± 0.024
- Absorbance (630 nm) ([1]; 9.4 μM): 0.266 ± 0.039
- Absorbance (630 nm) ([1]; 18.75 μM): 0.254 ± 0.025
- Absorbance (630 nm) ([1]; 37.5 μM): 0.260 ± 0.027
- Absorbance (630 nm) ([1]; 75 μM): 0.264 ± 0.031
- Absorbance (630 nm) ([1]; 150 μM): 0.266 ± 0.034
- Mono-Sulfestrol concentration in pooled plasma sample ([2]; intravenous): 735.9 ng/ml and 1.7 μM
- Mono-Sulfestrol concentration in pooled plasma sample ([2]; oral): 261.3 ng/ml and 0.6 μM
- Mean bodyweight ([3]; Day 0, DES 1.5 mg/kg per day, Di-Sulfestrol 3 mg/kg per day, three doses a day): 387 ± 6.9
- Mean bodyweight ([3]; Day 2): 381 ± 8.3
- Mean bodyweight ([3]; Day 4): 368 ± 9.5
- Mean bodyweight ([3]; Day 6): 357 ± 9.2
- Mean bodyweight ([3]; Day 8): 348 ± 8.5
- Mean bodyweight ([3]; Day 10): 344 ± 7.2
- Mean bodyweight ([3]; Day 12): 341 ± 7.5
- Mean bodyweight ([3]; Day 14): 333 ± 6.67
- Cholesterol (plasma) ([3]; after 14 days treatment, 4 hrs past final dosing, DES 1.5 mg/kg per day, Di-Sulfestrol 3 mg/kg per day): 12.1 ± 0.799 nmol/L
- estrogenic activity in rats (in words) ([3]; lowering body weight and cholesterol levels): show estrogenic activity
- metabolism pathway in human liver microsomes (in words) [4]: only metabolized by STS enzymes
- Clint [4, 9]: 31
- Contribution to metabolism [4, 9]: 85%
- Half-life [4, 9]: 45 min
- total flux, whole body bioluminescence (MDA-MB-231 Dlux; Day 7 (before start of treatment)): 1.73 10^9 photons/second
- total flux, whole body bioluminescence (MDA-MB-231 Dlux; Day 13): 8.84 10^9 photons/second
- total flux, whole body bioluminescence (MDA-MB-231 Dlux; Day 19): 16.2 10^9 photons/second
- effect on tumor progression (in words) (MDA-MB-231 Dlux; oral, MDA-MB-231 Dlux in mice): tumor progression inhibiting effect
- tolerance (in words) ([5]; mice, intravenously injectable): well tolerated in mice
- estrogenic activity (in words) ([5]; mouse, in vivo): has estrogenic activity
- water solubility (in words) [6]: water soluble
- metabolic fate in rat plasma (in words) [7]: mostly converted into Mono-Sulfestrol

Substance: stilbestrol sulfate
- estrogenic activity relative to stilbestrol [8]: 44%
